In patent publication US11969470B2, “Topiramate compositions and methods of making and using the same” (Regents of the University of Minnesota, priority 2006, dated 2024):

Assays:
[1] = administered parenterally, orally and via inhalation; compared with β-cyclodextrin; cited from earlier work
[2] = cited from earlier work
AMPA-kainate receptor = conditions: developing oligodendrocytes; similar to NBQX; cited from earlier work
[3] = Topiramate phase solubility study with the cyclodextrin CAPTISOL
Method: A phase solubility study was conducted with the cyclodextrin CAPTISOL® and topiramate to evaluate the extent of solubilization of the drug by the derivatized cyclodextrin.
Solutions containing increasing amounts of dissolved CAPTISOL® brand of sulfobutylether-β-cyclodextrin were prepared and added to small glass vials. Excess solid topiramate was added to each vial and the vials were capped, vortexed and placed in constant agitation for five days at room temperature (about 23° C. to about 25° C.).
After the multi-day equilibration period, the vials were centrifuged (twice at 693×g, 25° C.) and aliquots were taken from the clear supernatant solutions. The aliquots were diluted 1:3 (1:5.67 for 40% cyclodextrin CAPTISOL® solutions) with mobile phase and analyzed by HPLC for topiramate content.
• HPLC: Dionex • Detection: Refractive Index Detector • Column: SB-Phenyl (5 μm) 250 mm×4.6 mm • Column Temperature: 35° C. • Mobile Phase: 40:60 (MeOH:Water) • Flow Rate: 1.0 mL/min isocratic • Run Time: 30 minutes • Sample Solvent: Mobile phase • Injection Volume: 50 μL • Retention Time: ˜12.5 minutes Mobile Phase Preparation

[4] = Open labeled single dose intravenous [13C]6-TPM/CAPTISOL study in adult patients on maintenance oral topiramate (pharmacokinetics and safety); format: in vivo, human; conditions: for BP changes / EKG changes / Injection site irritation / Other adverse events / Pulse changes / Bioavailability (fraction of oral dose absorbed, AUCoral vs AUCiso) / Clearance / Distribution volume / Half life: IV dose 25 mg
Method: This was an open labeled, single dose study in adult patients on a maintenance dose of topiramate for treatment of either migraines or epilepsy.
Patients were instructed to take their evening topiramate dose the day before the study, then fast until after administration of study drug. On the day of the study, subjects were admitted to University of Minnesota General Clinical Research Center where a neurologist performed a brief physical and neurological exam, vital signs were recorded, an ECG strip was obtained, indwelling catheters were placed in the left and right forearms, and blood samples were drawn for baseline laboratory tests.
A baseline assessment of topiramate toxicity was performed using the following criteria: ataxia and nystagmus: 0=none, 1=mild, 2=severe. As used herein, “ataxia” is classified as “mild”—for unsteady with tandem gait testing, but able to perform without assistance, or as “severe”—unable to perform tandem gait testing without assistance
The [^13C]6-TPM was administered into the right arm catheter, while blood samples for laboratory tests were drawn from the left arm. Laboratory chemistries included albumin, blood chemistries, kidney and liver function test, and genotyping for drug disposition. A 25 mg [^13C]6-TPM dose was then infused over 10-20 minutes. The exact dose administered was determined gravimetrically from the pre- and post-dose syringe weights. At the end of the infusion, patients took their prescribed oral morning dose; thereafter they resumed their regular dosing regimen. Blood samples for pharmacokinetic analysis were taken at 0, 5 minutes, 15 minutes, 30 minutes, 1 hour, 2 hours, 4 hours, 6 hours, 10 hours, 24 hours, 48 hours, 72 hours and 96 hours after intravenous administration of the topiramate. Urine was collected from 0-24 hours for analysis of the parent drug to determine renal clearance. Urine volumes were measured and 15 mL aliquots were stored at −80° C. until analysis.
Topiramate was detected using a LC/MS method employing the electrospray ionization (ESI) and negative scan mode. This method is designed to measure both unlabeled topiramate and the stable-isotope topiramate using a negative ESI and SIM mode of liquid chromatograph mass spectrometer. The analytes were separated using ZORBAX® LC8/LC18 and a mobile phase consisting of ammonium acetate buffer and methanol. The data generated using CHEMSTATION® software (Agilent) and quantified using deuterated topiramate (“TPM-d12”, internal standard). Patient samples were run along with a 7-concentration standard curve (run in triplicate) and nine quality control samples (low, med and high also run in triplicates), analyzed in human plasma using liquid extraction with methyl-tert-butylether and negative ion electrospray mass spectrometry. The quantitative analysis was performed using selective ion monitoring mode for topiramate at m/z=338 and m/z=350 for TPM-d12 in the negative mode. The unlabeled topiramate calibration curve ranged from 0.05 μg/mL to 10 μg/mL.
Both stable-isotope topiramate and non-labeled topiramate concentration-time data was analyzed by non-compartmental methods to obtain AUC, clearance, half-life, and volume of distribution data. The AUC was determined by the trapezoidal rule and the terminal half-life was determined by linear regression of the terminal phase on log concentration vs. time plots. WINNONLIN® (Tripos L.L.P.), a pharmacokinetic data analysis package was used to fit the data to standard pharmacokinetic models (one and two-compartment models).
Elimination rate constant (kel): kel was determined by the best fit of the post-infusion isotope concentration-time data.
AUCiso=AUC0-96 hrs+Cp96 hrs/kel
Distribution Volume at Steady State (Vdss): Vdss was determined as follows: Vdss=Doseiso*AUMC/AUC where AUMC is the area under the first moment curve, and calculated by determining the area under the curve of a plot of the product of concentration and time versus time from zero time to infinity. […]

[5] = cited from earlier work; remark: listed apart in the source
[6] = tested on: hypoxic-ischemic white matter injury; conditions: administration post-insult in vivo; cited from earlier work
[7] = adult patients, summary of three subjects
[8] = subject TUMN1, oral dose 50 mg b.i.d.
[9] = subject TUMN2, oral dose 100 mg q.d.
[10] = subject TUMN3, oral dose 25 mg b.i.d.

For “sulfobutylether-β-cyclodextrin [CAPTISOL®]”, the nephrotoxicity [1] is listed as “does not exhibit the nephrotoxicity associated with β-cyclodextrin” and the water solubility [2] is listed as greater than 90 g per 100 mL.

In the case of `CC1(C)O[C@@H]2[C@@H](CO[C@@]3(COS(N)(=O)=O)OC(C)(C)O[C@@H]23)O1` [Topiramate, 2,3:4,5-di-O-isopropylidene-β-D-fructopyranose sulfamate], the “effect on AMPA-kainate receptor-mediated cell death and calcium influx, kainate-evoked currents” value (AMPA-kainate receptor) is given as “attenuates”, the intrinsic solubility ([3]; in water in the absence of cyclodextrin, room temperature) is given as 7860 µg/mL and the phase solubility type ([3]; topiramate in CAPTISOL solutions in water) is given as “Type A-linear”. The “distribution volume for intravenously administered topiramate” value [4, 7] was “approximately 0.7 L/kg”, the oral absorption [4, 7] was “approximately 100%” and the BP changes ([4]; subject TUMN1) was “None”. The EKG changes ([4]; subject TUMN1) was “None”, the Injection site irritation ([4]; subject TUMN1) was “None” and the Other adverse events ([4]; subject TUMN1) was “None”. For the same compound, the Pulse changes ([4]; subject TUMN1) was “None”, the “Bioavailability (fraction of oral dose absorbed, AUCoral vs AUCiso)” value [4, 8] was 102% and the Clearance [4, 8] was 1.01 L/h. The Distribution volume [4, 8] was 0.78 L/kg, the Half life [4, 8] was 30.5 h and the BP changes ([4]; subject TUMN2) was “None”. The EKG changes ([4]; subject TUMN2) was “None”, the Injection site irritation ([4]; subject TUMN2) was “None” and the Other adverse events ([4]; subject TUMN2) was “None”. For the same compound, the Pulse changes ([4]; subject TUMN2) was “None”, the “Bioavailability (fraction of oral dose absorbed, AUCoral vs AUCiso)” value [4, 9] was 106% and the Clearance [4, 9] was 1.07 L/h. For the same compound, the Distribution volume [4, 9] was 0.68 L/kg, the Half life [4, 9] was 28.4 h and the BP changes ([4]; subject TUMN3) was “None”. The EKG changes ([4]; subject TUMN3) was “None”, the Injection site irritation ([4]; subject TUMN3) was “None” and the Pulse changes ([4]; subject TUMN3) was “None”. The Other adverse events ([4]; subject TUMN3, cell wraps: Vasovagal response during IV line placement) was “Vasovagal”, the “Bioavailability (fraction of oral dose absorbed, AUCoral vs AUCiso)” value [4, 10] was 109% and the Clearance [4, 10] was 1.11 L/h. The Distribution volume [4, 10] was 0.70 L/kg, the Half life [4, 10] was 38.0 h and the “bioavailability of an oral topiramate dose” value ([5]; oral administration, previously found) was “about 80%”. The “oral dose excreted in the urine as unchanged drug” value ([5]; oral administration) was “about 70%”, the “higher clearance in pediatric patients compared to adults” value ([5]; pediatric patients vs adults) was 50% and the “effect on selective hypoxic-ischemic white matter injury” value [6] was “protective against selective hypoxic-ischemic white matter injury”.
